Data as given in patent publication US10858323B2, “HDAC inhibitors for the treatment of diabetic peripheral neuropathy” (REGENACY PHARMACEUTICALS, LLC, priority 2015, dated 2020).

Experiments:
HDAC1 = HDAC1 (Homo sapiens (Human), UniProt Q13547); assay: HDAC enzyme assay (HDAC1); format: biochemical
HDAC6 = HDAC6 (Homo sapiens (Human), UniProt Q9UBN7); assay: HDAC enzyme assay (HDAC6); format: biochemical
HDAC3 = HDAC3 (Homo sapiens (Human), UniProt O15379); assay: HDAC enzyme assay (HDAC3); format: biochemical
HDAC2 = HDAC2 (Homo sapiens (Human), UniProt Q92769); assay: HDAC enzyme assay (HDAC2); settings: read-out: HDAC2 IC50
[1] = test system: streptozotocin-induced diabetic rats (STZ rats); assay: Von Frey test of tactile allodynia in STZ diabetic rats; format: in vivo, rat; settings: for tactile allodynia / pain threshold (von Frey): STZ rats, oral dosing days 11-21
Protocol: Diabetes was induced in male SD rats by IV dosing of STZ (60 mg/kg) on […]. Blood glucose level (BGL) of above 300 mg/dl was observed on study day 3, following STZ dosing, which maintained throughout the study period.
Gabapentin (150 mg/kg) was used as a positive control. Tactile allodynia was measured on the indicated days during dosing and once on day 24, three days after dosing was stopped. Vehicle treated animals experienced low mechanical threshold throughout the treatment period (days 11-21) and also 3 days after the last dose (day 24).

Rats = assay: Tail Flick test; format: in vivo, rat; settings: BID for 4 days or single dose 1 h before test
Protocol: A Tail Flick test was performed every hour in a time period of four hours after treatments.
Data are presented in FIG. 4 as the latency time in seconds until the animals flicked their tails in response to the heat source. Morphine and Gabapentin were used as positive controls.

[2] = Blood brain barrier penetration; settings: in vivo
[3] = test system: streptozotocin hyperglycemic rats, dorsal root ganglia and sciatic nerves; assay: Metabolomic study in diabetic neuropathic pain model; format: in vivo, rat; settings: 10 mg/kg twice per day, 11 days
Protocol: Hyperglycemia was induced in rats with an injection of streptozotocin (60 mg/kg). Ten days later neuropathic pain was confirmed using a von Frey filament test for tactile allodynia. In this test, filaments of increasing diameter were applied to the plantar surface of the rear paw and the force necessary to precipitate a paw withdrawal is determined by the smallest filament needed to invoke a response. […] In addition, three naïve rats and three rats that had tactile allodynia at day 10 were sacrificed and the dorsal root ganglia and sciatic nerves were dissected and frozen as control samples.
Dorsal root ganglia and sciatic nerves were sent to Human Metabolome Technologies for analysis of metabolic intermediates. Extracts from these samples were analyzed by capillary electrophoresis/mass spectrometry to measure the level of charged metabolites. In addition, sciatic nerve extracts were analyzed by liquid chromatography/mass spectrometry to measure the level of non-charged metabolites.

[4] = test system: Dorsal root ganglion neurons (DRGNs); assay: Acetyl-tubulin fluorescent ICC of axonal microtubules; format: cell-based, rat
Protocol: DRGNs were treated with Compound 2 on coverslips, fixed and stained with antibodies against acetyl-tubulin and total tubulin (fluorescent ICC) to visualize and quantitate tubulin acetylation in axonal microtubules. […] Acetyl-tubulin signal was normalized to total tubulin signal.

[5] = test system: primary rat dorsal root ganglion (DRG) neurons; assay: Mitochondrial axonal transport live imaging under high glucose; format: cell-based; settings: 200 mM glucose and 500 nM compound, 24 h
Protocol: To investigate the effects of hyperglycemia on axonal transport live imaging was used to measure mitochondrial transport in primary rat dorsal root ganglion cells. Primary rat dorsal root ganglion (DRG) neurons (Lonza) were cultured for 5-7 days according to the vendor's protocol. The day before the imaging session cells were infected using CellLight Mitochondria-GFP (BacMam 2.0-based reagent, ThermoFisher Scientific) to fluorescently label mitochondria. […] Media in control wells was replaced with fresh media containing 25 mM glucose (control). Cells were allowed to incubate under these conditions for 24 h. […] Imaging was performed using Zeiss 3i system (Intelligent Imaging Innovations) in temperate controlled environment (37 C). Mitochondria were visualized using FITC filter. Time lapse images were acquired every 2 seconds over the course of 2 min and analyzed using Fiji (ImageJ). MtrackJ plugin was used to manually track mitochondrial movements and calculate parameters such as total distance traveled by each mitochondria. Total distance traveled by a population of mitochondria in each condition was plotted as a cumulative frequency plot. Data presented is a pool of 5 independent experiments.

[6] = test system: Dorsal root ganglion neurons (DRGNs); assay: Tubulin and histone acetylation by western blot of whole cell extracts; format: cell-based, rat; settings: 24 hours treatment

HDAC3, sequence (O15379 whole entry): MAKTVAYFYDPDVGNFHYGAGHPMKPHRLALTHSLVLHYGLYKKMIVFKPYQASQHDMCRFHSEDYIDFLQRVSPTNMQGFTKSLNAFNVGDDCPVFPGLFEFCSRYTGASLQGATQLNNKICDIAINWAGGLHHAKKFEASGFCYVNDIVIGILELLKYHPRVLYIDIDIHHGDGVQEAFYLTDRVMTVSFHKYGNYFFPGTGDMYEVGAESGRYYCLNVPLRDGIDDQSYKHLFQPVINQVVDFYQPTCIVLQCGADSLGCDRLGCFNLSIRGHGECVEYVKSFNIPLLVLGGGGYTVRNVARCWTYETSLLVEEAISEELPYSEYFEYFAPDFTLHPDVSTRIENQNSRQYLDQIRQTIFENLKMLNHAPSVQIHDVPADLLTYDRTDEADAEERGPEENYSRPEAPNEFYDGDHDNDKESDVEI
HDAC3, sequence (Q9Y618 395-489 partner): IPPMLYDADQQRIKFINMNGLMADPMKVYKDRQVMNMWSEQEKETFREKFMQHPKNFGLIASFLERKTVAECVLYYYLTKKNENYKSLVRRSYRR
HDAC2, sequence (Q92769 whole entry): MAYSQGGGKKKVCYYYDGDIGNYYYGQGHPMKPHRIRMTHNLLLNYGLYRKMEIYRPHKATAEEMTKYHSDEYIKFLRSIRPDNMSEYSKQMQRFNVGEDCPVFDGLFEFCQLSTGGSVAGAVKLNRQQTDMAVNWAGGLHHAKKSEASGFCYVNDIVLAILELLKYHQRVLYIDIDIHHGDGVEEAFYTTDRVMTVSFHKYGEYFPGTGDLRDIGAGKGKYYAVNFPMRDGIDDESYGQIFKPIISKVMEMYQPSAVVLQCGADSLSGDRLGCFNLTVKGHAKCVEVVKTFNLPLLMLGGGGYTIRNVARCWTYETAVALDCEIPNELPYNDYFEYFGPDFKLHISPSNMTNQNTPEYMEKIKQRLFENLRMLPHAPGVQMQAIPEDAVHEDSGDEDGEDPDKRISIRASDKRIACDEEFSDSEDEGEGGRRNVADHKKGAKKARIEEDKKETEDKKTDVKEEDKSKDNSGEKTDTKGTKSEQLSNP
HDAC6, sequence (Q9UBN7 whole entry): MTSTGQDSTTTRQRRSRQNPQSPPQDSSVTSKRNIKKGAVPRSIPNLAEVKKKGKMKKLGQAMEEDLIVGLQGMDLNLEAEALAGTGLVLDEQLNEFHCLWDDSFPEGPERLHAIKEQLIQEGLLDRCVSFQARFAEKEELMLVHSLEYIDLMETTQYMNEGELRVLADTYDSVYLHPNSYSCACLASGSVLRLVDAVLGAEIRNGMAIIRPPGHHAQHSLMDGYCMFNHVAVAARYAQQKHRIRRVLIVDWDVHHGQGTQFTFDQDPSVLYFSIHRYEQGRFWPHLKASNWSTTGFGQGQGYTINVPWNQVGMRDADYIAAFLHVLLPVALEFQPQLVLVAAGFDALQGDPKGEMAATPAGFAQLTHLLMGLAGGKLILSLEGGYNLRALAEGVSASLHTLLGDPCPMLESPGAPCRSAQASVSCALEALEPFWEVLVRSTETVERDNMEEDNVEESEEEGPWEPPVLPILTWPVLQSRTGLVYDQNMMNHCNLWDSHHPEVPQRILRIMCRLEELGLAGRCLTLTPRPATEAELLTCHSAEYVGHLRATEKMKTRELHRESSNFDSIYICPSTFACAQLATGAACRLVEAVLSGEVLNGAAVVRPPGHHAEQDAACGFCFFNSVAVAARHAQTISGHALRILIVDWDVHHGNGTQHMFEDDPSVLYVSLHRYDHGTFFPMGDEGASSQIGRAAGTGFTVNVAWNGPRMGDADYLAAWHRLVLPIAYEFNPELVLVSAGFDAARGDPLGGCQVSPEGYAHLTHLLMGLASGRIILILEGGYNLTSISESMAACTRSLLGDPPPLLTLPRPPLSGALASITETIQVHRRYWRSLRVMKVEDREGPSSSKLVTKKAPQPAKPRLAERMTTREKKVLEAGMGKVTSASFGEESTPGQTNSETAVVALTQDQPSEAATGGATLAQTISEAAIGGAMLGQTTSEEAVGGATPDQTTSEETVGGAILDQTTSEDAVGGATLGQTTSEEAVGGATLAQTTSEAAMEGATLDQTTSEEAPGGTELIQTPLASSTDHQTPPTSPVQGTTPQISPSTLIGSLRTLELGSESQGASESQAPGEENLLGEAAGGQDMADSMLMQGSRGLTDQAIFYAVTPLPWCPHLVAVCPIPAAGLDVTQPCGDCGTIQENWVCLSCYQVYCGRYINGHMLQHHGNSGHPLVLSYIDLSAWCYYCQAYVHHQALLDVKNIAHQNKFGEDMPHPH
HDAC1, sequence (Q13547 whole entry): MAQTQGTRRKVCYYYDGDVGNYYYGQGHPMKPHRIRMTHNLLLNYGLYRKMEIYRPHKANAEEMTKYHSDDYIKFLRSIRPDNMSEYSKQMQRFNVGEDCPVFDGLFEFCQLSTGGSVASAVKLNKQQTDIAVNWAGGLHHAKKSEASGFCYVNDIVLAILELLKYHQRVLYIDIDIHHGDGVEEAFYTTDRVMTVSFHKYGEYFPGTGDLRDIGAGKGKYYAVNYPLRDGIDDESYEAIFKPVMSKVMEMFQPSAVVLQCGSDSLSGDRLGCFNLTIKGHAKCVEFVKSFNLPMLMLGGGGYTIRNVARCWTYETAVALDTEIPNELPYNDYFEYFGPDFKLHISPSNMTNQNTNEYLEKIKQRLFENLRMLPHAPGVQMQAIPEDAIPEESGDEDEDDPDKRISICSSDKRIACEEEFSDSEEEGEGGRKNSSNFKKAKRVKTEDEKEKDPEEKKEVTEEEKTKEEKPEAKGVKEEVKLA

Structure (SMILES) | IC50 (HDAC1) [µM] | IC50 (HDAC6) [µM] | IC50 (HDAC3) [µM] | IC50 (HDAC2) [µM] | tactile allodynia / pain threshold (von Frey) [1] | increase of latency time in Tail Flick test vs vehicle control (Rats) | blood brain barrier penetration [2] | metabolic changes incl. acyl-carnitines (AC 16:2, AC 18:2) [3] | persistence of effect on pain threshold after drug withdrawal ([1]; day 24, three days after dosing was stopped) | acetylation of axonal microtubules (acetyl-tubulin normalized to total tubulin) [4] | mitochondrial movement (total distance traveled) [5] | histone acetylation (western blot) ([6]; at up to 1 uM) | tubulin acetylation (western blot) ([6]; whole cell extracts)
COc1ccc(C(F)(F)F)cc1CNc1ncc(C(=O)NO)cn1 [Compound 3, N-hydroxy-2-((2-methoxy-5-(trifluoromethyl)benzyl)amino)pyrimidine-5-carboxamide] | 0.068 | 0.002 | 0.105 | 0.082 | reversed tactile allodynia in STZ rats in a dose dependent manner and restored the pain threshold in these rats to almost normal levels | – | – | – | – | – | – | – | –
O=C(NO)c1cnc(NC2(c3ccccc3)CC2)nc1 [Compound 1, N-hydroxy-2-((1-phenylcyclopropyl)amino)pyrimidine-5-carboxamide] | – | – | – | – | reversed tactile allodynia in STZ rats in a dose dependent manner and restored the pain threshold in these rats to almost normal levels | not effective | penetrates the blood brain barrier | normalized many of the metabolic changes, including the changes in acyl-carnitines | persisted even after the drug was withdrawn | – | – | – | –
O=C(CCCCCCNC(=O)c1cnc(N(c2ccccc2)c2ccccc2)nc1)NO [Compound 2, 2-(diphenylamino)-N-(7-(hydroxyamino)-7-oxoheptyl)pyrimidine-5-carboxamide] | – | – | – | – | reversed tactile allodynia in STZ rats in a dose dependent manner and restored the pain threshold in these rats to almost normal levels | not effective (except in the group that received Compound 2 at 30 mg/kg BID for 4 days) | does not penetrate the blood brain barrier very well | – | – | increases acetylation of axonal microtubules | restores normal pattern of mitochondrial movement | Minimal histone acetylation increase | induced an increase in tubulin acetylation in a dose-dependent matter
